Assay results taken from US20070037817A1, “Acetylenic piperazines as metabotropic glutamate receptor antagonists” (AstraZeneca AB, priority 2005, published 2007).
pIC50: −log10 of the molar value.

Target: T1, human mGluR5d (Homo sapiens, UniProt P41594)
T1 construct: expressed in transfected cells; host or cells: GHEK (HEK cells expressing a glutamate transporter) for the IP3 assay
Assay: Functional assessment of mGluR5 antagonism in cell lines expressing mGluR5d (FLIPR [Ca2+]i mobilization assay / IP3 turnover assay; assay behind the values not specified)
Assay type: cell-based
Conditions: assays described herein (FLIPR or IP3), cells expressing human mGluR5d
Excerpt: The pharmacological properties of the compounds of the invention can be analyzed using standard assays for functional activity. Examples of glutamate receptor assays are well known in the art as described in for example Aramori et al., Neuron 8:757 (1992), Tanabe et al., Neuron 8:169 (1992), Miller et al., J. Neuroscience 15: 6103 (1995), Balazs, et al., J Neurochemistry 69:151 (1997). The methodology described in these publications is incorporated herein by reference. Conveniently, the compounds of the invention can be studied by means of an assay that measures the mobilization of intracellular calcium, [Ca^2+]i in cells expressing mGluR5.
Intracellular calcium mobilization was measured by detecting changes in fluorescence of cells loaded with the fluorescent indicator fluo-3. Fluorescent signals were measured using the FLIPR system (Molecular Devices). A two addition experiment was used that could detect compounds that either activate or antagonize the receptor.
For FLIPR analysis, cells expressing human mGluR5d were seeded on collagen coated clear bottom 96-well plates with black sides and analysis of [Ca^2+]i mobilization was done 24 hours after seeding.
FLIPR experiments were done using a laser setting of 0.800 W and a 0.4 second CCD camera shutter speed. Each FLIPR experiment was initiated with 160 μL of buffer present in each well of the cell plate. After each addition of the compound, the fluorescence signal was sampled 50 times at 1 second intervals followed by 3 samples at 5 second intervals. Responses were measured as the peak height of the response within the sample period.
EC50 and IC50 determinations were made from data obtained from 8-point concentration response curves (CRC) performed in duplicate. Agonist CRC were generated by scaling all responses to the maximal response observed for the plate. Antagonist block of the agonist challenge was normalized to the average response of the agonist challenge in 14 control wells on the same plate.
We have validated a secondary functional assay for mGluR5d based on Inositol Phosphate (IP3) turnover. IP3 accumulation is measured as an index of receptor mediated phospholipase C turnover. GHEK cells stably expressing the human mGluR5d receptors were incubated with [3H] myo-inositol overnight, washed three times in HEPES buffered saline and pre-incubated for 10 min. with 10 mM LiCl. Compounds (agonists) were added and incubated for 30 min. at 37° C. Antagonist activity was determined by pre-incubating test compounds for 15 min., then incubating in the presence of glutamate (80 μM) or DHPG (30 μM) for 30 min. Reactions were terminated by the addition of perchloric acid (5%). Samples were collected and neutralized, and inositol phosphates were separated using Gravity-Fed Ion-Exchange Columns.
Functional assessment of mGluR5 Antagonism in Cell Lines Expressing mGluR5D
The properties of the compounds of the invention can be analyzed using standard assays for pharmacological activity. Examples of glutamate receptor assays are well known in the art as described in for example Aramori et al., Neuron 8:757 (1992), Tanabe et al., Neuron 8:169 (1992), Miller et al., J. Neuroscience 15: 6103 (1995), Balazs, et al., J. Neurochemistry 69:151 (1997). The methodology described in these publications is incorporated herein by reference. Conveniently, the compounds of the invention can be studied by means of an assay (FLIPR) that measures the mobilization of intracellular calcium, [Ca^2+]i in cells expressing mGluR5 or another assay (IP3) that measures inositol phosphate turnover.
Cells expressing human mGluR5d as described in WO97/05252 are seeded at a density of 100,000 cells per well on collagen coated clear bottom 96-well plates with black sides and experiments are done 24 h following seeding. All assays are done in a buffer containing 127 mM NaCl, 5 mM KCl, 2 mM MgCl2, 0.7 mM NaH2PO4, 2 mM CaCl2, 0.422 mg/ml NaHCO3, 2.4 mg/ml HEPES, 1.8 mg/ml glucose and 1 mg/ml BSA Fraction IV (pH 7.4). […]

T1 sequence (P41594 21-942 isoform P41594-3 limits assumed): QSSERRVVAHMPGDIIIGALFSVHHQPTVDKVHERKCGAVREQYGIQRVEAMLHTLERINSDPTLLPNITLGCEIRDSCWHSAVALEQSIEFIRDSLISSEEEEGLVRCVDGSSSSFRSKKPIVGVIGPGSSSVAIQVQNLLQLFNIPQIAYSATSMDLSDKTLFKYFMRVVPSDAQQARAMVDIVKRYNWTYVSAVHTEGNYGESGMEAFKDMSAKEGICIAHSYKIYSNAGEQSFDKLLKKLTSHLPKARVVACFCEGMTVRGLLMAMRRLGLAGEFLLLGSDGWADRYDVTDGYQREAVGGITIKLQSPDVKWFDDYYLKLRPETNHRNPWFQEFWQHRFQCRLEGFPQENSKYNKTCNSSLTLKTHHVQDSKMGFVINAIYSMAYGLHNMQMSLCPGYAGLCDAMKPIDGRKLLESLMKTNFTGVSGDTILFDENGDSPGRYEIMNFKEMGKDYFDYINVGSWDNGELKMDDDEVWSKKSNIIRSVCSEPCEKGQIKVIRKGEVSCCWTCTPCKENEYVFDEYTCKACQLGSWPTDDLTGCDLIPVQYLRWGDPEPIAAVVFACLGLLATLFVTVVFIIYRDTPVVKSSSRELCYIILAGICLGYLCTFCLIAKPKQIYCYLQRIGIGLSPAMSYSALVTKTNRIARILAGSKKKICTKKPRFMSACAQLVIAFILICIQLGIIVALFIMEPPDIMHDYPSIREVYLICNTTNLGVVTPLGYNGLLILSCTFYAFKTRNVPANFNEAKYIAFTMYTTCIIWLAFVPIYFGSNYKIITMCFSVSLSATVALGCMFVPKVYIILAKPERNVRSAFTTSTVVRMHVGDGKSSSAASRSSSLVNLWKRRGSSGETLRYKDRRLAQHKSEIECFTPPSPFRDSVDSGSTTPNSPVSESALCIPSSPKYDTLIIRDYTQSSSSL

| SMILES | pIC50 |
| --- | --- |
| N#Cc1nccnc1N1CCN2[C@@H](CC[C@@H]2C#Cc2nccs2)C1 (racemic) [Example 14.26, (±)-3-[(6R,8aS)-6-(1,3-thiazol-2-yl-ethynyl)hexahydropyrrolo[1,2-a]pyrazin-2(1H)-yl]pyrazine-2-carbonitrile] | 6.36 |
| COC(=O)c1cccnc1N1CCN2[C@@H](CC[C@@H]2C#Cc2cccc(Cl)c2)C1 (racemic) [Example 13.12, (±)-methyl 2-[(6R,8aS)-6-[(3-chloro-phenyl)ethynyl]hexahydropyrrolo[1,2-a]pyrazin-2(1H)-yl]nicotinate] | 7.64 |
| CCOC(=O)N1CCN2[C@@H](CC[C@H]2C#Cc2cccc(Cl)c2)C1 [Example 12.3, ethyl (6S,8aS)-6-[(3-chloro-phenyl)ethynyl]hexahydropyrrolo[1,2-a]pyrazine-2(1H)-carboxylate] | 6.73 |

Next, values leading:

| pIC50 | SMILES |
| --- | --- |
| 7.08 | N#Cc1cc(F)cnc1N1CCN2[C@@H](CCC[C@@H]2C#Cc2ccccn2)C1 (racemic) [Example 18.7, (±)-5-fluoro-2-[(6R,9aS)-6-(pyridin-2-ylethynyl)octahydro-2H-pyrido [1,2-a]pyrazin-2-yl]nicotinonitrile] |
| 7.70 | N#Cc1cccc(C#C[C@H]2CCC[C@H]3CN(c4ncccc4C#N)CCN32)c1 (racemic) [Example 18.3, (±)-2-{(6R,9aS)-6-[(3-cyanophenyl)ethynyl]octahydro-2H-pyrido[1,2-a]pyrazin-2-yl}nicotinonitrile] |
| 6.31 | N#Cc1ccc(N2CCN3[C@@H](CC[C@H]3C#Cc3cccc(Cl)c3)C2)nc1 [Example 13.3, 6-[(6S,8aS)-6-[(3-chlorophenyl)ethynyl]hexahydropyrrolo[1,2-a]pyrazin-2(1H)-yl]nicotinonitrile] |
